Test results taken from BigSolDB 2.1.

For `O=c1c(-c2ccc(O)cc2)coc2cc(O)cc(O)c12`, the solubility (mole fraction) (in acetone, 288.2 K) was 0.00477, the solubility (mole fraction) (in acetone, 293.2 K) was 0.00526 and the solubility (mole fraction) (in acetone, 298.2 K) was 0.00607. It also gave a solubility (mole fraction) (in acetone, 303.2 K) of 0.007, a solubility (mole fraction) (in acetone, 308.2 K) of 0.00754 and a solubility (mole fraction) (in acetone, 313.2 K) of 0.00805. For the same compound, the solubility (mole fraction) (in acetone, 318.2 K) was 0.00856, the solubility (mole fraction) (in acetone, 323.2 K) was 0.00879 and the solubility (mole fraction) (in acetone, 328.2 K) was 0.0089. For the same compound, the solubility (mole fraction) (in chloroform, 288.2 K) was 2.41e-06, the solubility (mole fraction) (in chloroform, 293.2 K) was 2.82e-06 and the solubility (mole fraction) (in chloroform, 298.2 K) was 3.22e-06. The solubility (mole fraction) (in chloroform, 303.2 K) was 3.6e-06, the solubility (mole fraction) (in chloroform, 308.2 K) was 3.99e-06 and the solubility (mole fraction) (in chloroform, 313.2 K) was 4.36e-06. It also gave a solubility (mole fraction) (in chloroform, 318.2 K) of 4.51e-06, a solubility (mole fraction) (in chloroform, 323.2 K) of 4.7e-06 and a solubility (mole fraction) (in chloroform, 328.2 K) of 4.74e-06. For the same compound, the solubility (mole fraction) (in ethyl acetate, 288.2 K) was 0.00183, the solubility (mole fraction) (in ethyl acetate, 293.2 K) was 0.0022 and the solubility (mole fraction) (in ethyl acetate, 298.2 K) was 0.00241. It also gave a solubility (mole fraction) (in ethyl acetate, 303.2 K) of 0.00273, a solubility (mole fraction) (in ethyl acetate, 308.2 K) of 0.00335 and a solubility (mole fraction) (in ethyl acetate, 313.2 K) of 0.00367. For the same compound, the solubility (mole fraction) (in ethyl acetate, 318.2 K) was 0.00413, the solubility (mole fraction) (in ethyl acetate, 323.2 K) was 0.00471 and the solubility (mole fraction) (in ethyl acetate, 328.2 K) was 0.00539. It also gave a solubility (mole fraction) (in methanol, 288.2 K) of 0.000935, a solubility (mole fraction) (in methanol, 293.2 K) of 0.00127 and a solubility (mole fraction) (in methanol, 298.2 K) of 0.00145. It also gave a solubility (mole fraction) (in methanol, 303.2 K) of 0.00163, a solubility (mole fraction) (in methanol, 308.2 K) of 0.00192 and a solubility (mole fraction) (in methanol, 313.2 K) of 0.00212. It also gave a solubility (mole fraction) (in methanol, 318.2 K) of 0.00266, a solubility (mole fraction) (in methanol, 323.2 K) of 0.00323 and a solubility (mole fraction) (in methanol, 328.2 K) of 0.00372. The solubility (mole fraction) (in n-hexane, 288.2 K) was 6.96e-06, the solubility (mole fraction) (in n-hexane, 293.2 K) was 8.12e-06 and the solubility (mole fraction) (in n-hexane, 298.2 K) was 9e-06. The solubility (mole fraction) (in n-hexane, 303.2 K) was 1.01e-05, the solubility (mole fraction) (in n-hexane, 308.2 K) was 1.09e-05 and the solubility (mole fraction) (in n-hexane, 313.2 K) was 1.14e-05. For the same compound, the solubility (mole fraction) (in n-hexane, 318.2 K) was 1.24e-05, the solubility (mole fraction) (in n-hexane, 323.2 K) was 1.3e-05 and the solubility (mole fraction) (in n-hexane, 328.2 K) was 1.41e-05. The solubility (mole fraction) (in water, 288.2 K) was 4.72e-08, the solubility (mole fraction) (in water, 293.2 K) was 6.95e-08 and the solubility (mole fraction) (in water, 298.2 K) was 8.46e-08. The solubility (mole fraction) (in water, 303.2 K) was 1.05e-07, the solubility (mole fraction) (in water, 308.2 K) was 1.25e-07 and the solubility (mole fraction) (in water, 313.2 K) was 1.67e-07. It also gave a solubility (mole fraction) (in water, 318.2 K) of 1.99e-07, a solubility (mole fraction) (in water, 323.2 K) of 2.7e-07 and a solubility (mole fraction) (in water, 328.2 K) of 3.68e-07.
